From patent EP1115693B9, “SUBSTITUTED POLYCYCLIC ARYL AND HETEROARYL $i([sequence])-HETEROALKYLAMINES USEFUL FOR INHIBITING CHOLESTERYL ESTER [sequence] PROTEIN ACTIVITY” (Monsanto Company, priority 1998, dated 2000)

Target: T1, CETP (Homo sapiens, UniProt P11597)
T1 sequence (P11597 18-493): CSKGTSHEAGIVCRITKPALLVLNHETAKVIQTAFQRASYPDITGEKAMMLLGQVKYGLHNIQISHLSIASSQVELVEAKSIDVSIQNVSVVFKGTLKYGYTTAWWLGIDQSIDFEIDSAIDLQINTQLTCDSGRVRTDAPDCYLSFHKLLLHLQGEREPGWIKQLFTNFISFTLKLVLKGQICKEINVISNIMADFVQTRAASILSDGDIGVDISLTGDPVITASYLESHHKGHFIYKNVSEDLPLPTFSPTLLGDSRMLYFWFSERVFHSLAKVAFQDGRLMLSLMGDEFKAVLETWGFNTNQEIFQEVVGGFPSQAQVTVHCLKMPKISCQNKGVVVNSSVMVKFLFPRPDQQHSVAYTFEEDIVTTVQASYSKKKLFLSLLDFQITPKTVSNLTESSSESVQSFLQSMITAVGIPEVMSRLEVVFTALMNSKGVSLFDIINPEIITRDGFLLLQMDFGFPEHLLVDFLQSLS
Experiment: Assay of CETP inhibition using purified components (reconstituted buffer assay): transfer of [3H]CE from HDL to LDL
Format: biochemical
Parameters: made in house; host or cells: CHO cells (serum-free conditioned medium)
Conditions: 2 hours at 37°C
Method: ASSAY OF CETP INHIBITION USING PURIFIED COMPONENTS (RECONSTITUTED BUFFER ASSAY)
The ability of compounds to inhibit CETP activity was assessed using an in vitro assay that measured the rate of transfer of radiolabeled cholesteryl ester ([^3H]CE) from HDL donor particles to LDL acceptor particles. Details of the assay are provided by Glenn, K. C. et al. (Glenn and Melton, "Quantification of Cholesteryl Ester Transfer Protein (CETP): A) CETP Activity and B) Immunochemical Assay of CETP Protein," Meth. Enzymol., 263, 339-351 (1996)). Human recombinant CETP can be obtained from the serum-free conditioned medium of CHO cells transfected with a cDNA for CETP and purified as described by Wang, S. et al. (J. Biol. Chem. 267, 17487-17490 (1992)). To measure CETP activity, [^3H]CE-labeled-HDL, LDL, CETP and assay buffer (50 mM tris(hydroxymethyl)aminomethane, pH 7.4; 150 mM sodium chloride; 2 mM ethylenediamine-tetraacetic acid (EDTA); 1% bovine serum albumin) were incubated in a final volume of 200 µL, for 2 hours at 37°C in 96 well plates. […] The inhibitors were then diluted 1:1 with CETP in assay buffer, and then 25 µL of that solution was mixed with 175 µL of lipoprotein pool for assay. Following incubation, LDL was differentially precipitated by the addition of 50 µL of 1% (w/v) dextran sulfate/0.5 M magnesium chloride, mixed by vortex, and incubated at room temperature for 10 minutes. A potion of the solution (200 µL) was transferred to a filter plate (Millipore). After filtration, the radioactivity present in the precipitated LDL was measured by liquid scintillation counting.
This value was defined as the IC50.

Row | Structure (SMILES) | IC50
1 | COc1ccc(OC)c(C(=O)CN(CC(O)C(F)(F)F)c2cccc(OC(F)(F)F)c2)c1 (stereo not shown) [compound 340] | 100 µM
2 | Cc1ccc(CN(CC(O)C(F)(F)F)c2cccc(C(F)(F)F)c2)cc1 (stereo not shown) [compound 45] | 100 µM
3 | CC(C)COc1cccc(CN(CC(O)C(F)(F)F)c2cccc(Oc3ccc(F)cc3)c2)c1 (stereo not shown) [compound 652] | 1.5 µM
4 | OC(CN(Cc1cccc(OC(F)(F)C(F)F)c1)c1cccc(OCc2ccccn2)c1)C(F)(F)F (stereo not shown) [compound 432] | 1.7 µM
5 | Cc1cc(Oc2cccc(N(Cc3cccc(OC(F)(F)C(F)F)c3)CC(O)C(F)(F)F)c2)ccc1F (stereo not shown) [compound 242] | 0.076 µM
6 | OC(CN(Cc1cccc(OC(F)(F)C(F)F)c1)c1cccc(OCc2cccc(SC(F)(F)F)c2)c1)C(F)(F)F (stereo not shown) [compound 410] | 0.19 µM
7 | COc1cccc(N(Cc2cccc(C)c2)CC(O)C(F)(F)F)c1 (stereo not shown) [Example 3] | 60 µM
8 | OC(CN(Cc1cccc(Oc2cc(Cl)cc(Cl)c2)c1)c1cccc(OC(F)(F)F)c1)C(F)(F)F (stereo not shown) [compound 96] | 50 µM
9 | OC(CN(Cc1cccc(OC(F)(F)C(F)F)c1)c1cccc(Oc2ccc(S)cc2)c1)C(F)(F)F (stereo not shown) [compound 263] | > 50 µM
10 | O=C(c1cccc(N(Cc2cccc(OC(F)(F)C(F)F)c2)CC(O)C(F)(F)F)c1)N1CCOCC1 (stereo not shown) [compound 471] | 50 µM
11 | Cc1ccccc1N(Cc1cccc(C(F)(F)F)c1)CC(O)C(F)(F)F (stereo not shown) [compound 21] | > 100 µM
12 | COc1ccccc1CC(=O)N(CC(O)C(F)(F)F)c1cccc(OC(F)(F)F)c1 (stereo not shown) [compound 339] | > 100 µM
13 | O=C(Cc1ccccc1Oc1ccccc1)N(CC(O)C(F)(F)F)c1cccc(OC(F)(F)F)c1 (stereo not shown) [compound 361] | > 100 µM
14 | OC(CN(Cc1cccc(C(F)(F)F)c1)c1cc(Oc2ccc(F)cc2)cc(C(F)(F)F)c1)C(F)(F)F (stereo not shown) [compound 641] | 11 µM
15 | Fc1ccc(Oc2cccc(NCc3cccc(OC(F)(F)C(F)F)c3)c2)cc1 [634C] | > 100 µM
16 | OC(CN(Cc1ccccc1)c1cccc(Oc2ccccc2)c1)C(F)(F)F (stereo not shown) [compound 217] | 32 µM
17 | OC(CN(Cc1cccc(OC(F)(F)C(F)F)c1)c1cccc(-c2ccccc2)c1)C(F)(F)F (stereo not shown) [compound 564] | 2.5 µM
18 | Cc1ccccc1CN(CC(O)C(F)(F)F)c1cccc(F)c1 (stereo not shown) [compound 671] | > 100 µM
19 | OC(CN(Cc1cccc(OC(F)(F)C(F)F)c1)c1cccc(OC2CCCC2)c1)C(F)(F)F (stereo not shown) [compound 509] | 0.42 µM
20 | OC(COC(F)(F)C(F)F)CN(Cc1cccc(OC(F)(F)C(F)F)c1)c1cccc(Oc2ccc(C(F)(F)F)cc2)c1 (stereo not shown) [compound 702] | 35 µM
21 | COc1cc(CN(CC(O)C(F)(F)F)c2cccc(OC(F)(F)F)c2)cc(OC)c1 (stereo not shown) [compound 350] | 50 µM
22 | OC(CN(Cc1ccccc1F)Cc1ccccc1C(F)(F)F)C(F)(F)F (stereo not shown) [compound 696] | 100 µM
23 | OC(CN(Cc1cccc(OC(F)(F)C(F)F)c1)c1cccc(OCCN2CCCC2)c1)C(F)(F)F (stereo not shown) [compound 498] | > 50 µM
24 | OC(CN(Cc1cccc(OC(F)(F)F)c1)c1cc(Oc2ccc(F)cc2)cc(C(F)(F)F)c1)C(F)(F)F (stereo not shown) [compound 643] | 2.1 µM
25 | COC(=O)c1cccc(CN(CC(O)C(F)(F)F)c2cccc(OC(F)(F)F)c2)c1 (stereo not shown) [compound 325] | > 100 µM
26 | OC(COC(F)(F)C(F)F)CN(Cc1cccc(OC(F)(F)C(F)F)c1)c1cccc(Oc2ccc(F)cc2)c1 (stereo not shown) [compound 701] | 4.5 µM
27 | OC(CN(Cc1cccc(F)c1)c1cccc(F)c1)C(F)(F)F (stereo not shown) [compound 18] | 60 µM
28 | O=C(OC(CN(C(=O)c1cccc(C(F)(F)F)c1)c1cccc(F)c1)C(F)(F)F)c1cccc(C(F)(F)F)c1 (stereo not shown) [Example 662, 2,2,2-trifluoro-1-[[(3-fluorophenyl)[3-(trifluoromethyl)benzoyl]amino]-methyl]ethyl 3-trifluoromethylbenzoate] | 50 µM

Row | Structure (SMILES) | IC50
29 | Cc1ccc(N(Cc2cccc(C(F)(F)F)c2)CC(O)C(F)(F)F)cc1 (stereo not shown) [compound 20] | > 100 µM
30 | OCc1cccc(CN(CC(O)C(F)(F)F)c2cccc(Oc3ccccc3)c2)c1 (stereo not shown) [Example 618, 3-[[(3-phenoxyphenyl)(3,3,3-trifluoro-2-hydroxypropyl)amino]methyl]benzenemethanol] | 100 µM
31 | Cc1ccc(CN(CC(O)C(F)(F)F)c2cccc(Cl)c2)cc1 (stereo not shown) [compound 34] | 50 µM
32 | CC(C)(C)COc1cccc(N(Cc2cccc(OC(F)(F)C(F)F)c2)CC(O)C(F)(F)F)c1 (stereo not shown) [compound 506] | 0.97 µM
33 | OC(CN(Cc1cccc(OC(F)(F)C(F)F)c1)c1cccc(Oc2nccs2)c1)C(F)(F)F (stereo not shown) [compound 448] | 4.3 µM
34 | COc1cc2c(cc1N(Cc1cccc(OC(F)(F)F)c1)CC(O)C(F)(F)F)oc1ccccc12 (stereo not shown) [compound 698] | 100 µM
35 | OC(CN(Cc1ccc(-c2ccccc2)cc1)c1cccc(OC(F)(F)F)c1)C(F)(F)F (stereo not shown) [compound 333] | 100 µM
36 | CCCCOC(=O)c1ccc(N(Cc2cccc(OC(F)(F)F)c2)CC(O)C(F)(F)F)cc1 (stereo not shown) [compound 164] | > 100 µM
37 | OC(CN(Cc1ccccc1)c1cccc(F)c1)C(F)(F)F (stereo not shown) [compound 10] | > 100 µM
38 | OC(CN(Cc1cccc(OC(F)(F)C(F)F)c1)c1cccc(Oc2cccc(C(F)(F)F)c2F)c1)C(F)(F)F (stereo not shown) [compound 227] | 0.13 µM
39 | OCCCOc1cccc(N(Cc2cccc(OC(F)(F)C(F)F)c2)CC(O)C(F)(F)F)c1 (stereo not shown) [compound 504] | 14 µM
40 | OC(CN(Cc1ccccc1)c1ccccc1)C(F)(F)F (stereo not shown) [compound 2] | 100 µM
41 | OC(CN(Cc1ccc(C(F)(F)F)cc1)c1cccc(Oc2ccc(F)cc2)c1)C(F)(F)F (stereo not shown) [compound 640] | 4.3 µM
42 | OC(CN(Cc1cccc(OC(F)(F)C(F)F)c1)c1cccc(Cc2ccccc2)c1)C(F)(F)F (stereo not shown) [compound 515] | 1.8 µM
43 | OC(CN(Cc1cccc(Oc2ccc(Cl)cc2)c1)c1cccc(OC(F)(F)F)c1)C(F)(F)F (stereo not shown) [compound 93] | 50 µM
44 | O=C(C=Cc1ccccc1)N(CC(O)C(F)(F)F)c1cccc(OC(F)(F)F)c1 (stereo not shown) [compound 351] | 50 µM
45 | CC(C)(C)c1ccc(COc2cccc(N(Cc3cccc(OC(F)(F)C(F)F)c3)CC(O)C(F)(F)F)c2)cc1 (stereo not shown) [compound 418] | 2.1 µM
46 | OC(CN(Cc1ccc(C(F)(F)F)cc1)c1ccc(F)c(F)c1)C(F)(F)F (stereo not shown) [compound 22] | 50 µM
47 | CCCCOc1ccc(CN(CC(O)C(F)(F)F)c2cccc(OC(F)(F)F)c2)cc1 (stereo not shown) [compound 120] | 50 µM
48 | Cc1ccc(N(Cc2cccc(F)c2)CC(O)C(F)(F)F)cc1 (stereo not shown) [compound 32] | > 100 µM
49 | O=C(c1c(F)c(F)c(F)c(F)c1F)N(CC(O)C(F)(F)F)c1cccc(OC(F)(F)F)c1 (stereo not shown) [compound 343] | 100 µM
50 | OC(CN(Cc1ccccc1C(F)(F)F)c1cccc(F)c1)C(F)(F)F (stereo not shown) [compound 670] | > 100 µM
51 | Cc1ccc(CN(CC(O)C(F)(F)F)c2ccc(C(F)(F)F)cc2)cc1 (stereo not shown) [compound 672] | 100 µM
52 | OC(CN(Cc1cccc(Oc2cccc(C(F)(F)F)c2)c1)c1cccc(F)c1)C(F)(F)F (stereo not shown) [compound 674] | > 100 µM
53 | CCOc1cccc(CN(CC(O)C(F)(F)F)c2cccc(Oc3ccc(F)cc3)c2)c1 (stereo not shown) [compound 646] | 0.77 µM
54 | Cc1cccc(CN(CC(O)C(F)(F)F)c2cccc(F)c2)c1 (stereo not shown) [compound 49] | > 100 µM
55 | OC(CN(Cc1ccc(-c2ccccc2)cc1)c1ccc(C(F)(F)F)cc1)C(F)(F)F (stereo not shown) [compound 144] | 100 µM
